We go through 13 compounds from patent US20180105492A1, “COMPOUNDS DERIVED FROM 3-ALKYLAMINE-1H-INDOLYL ACRYLATE AND THEIR USE IN THE TREATMENT OF NEURODEGENERATIVE DISEASES” (FUNDACION PARA LA INVESTIGACION BIOMEDICA DEL HOSPITAL …, priority 2014, published 2018).

Holding throughout (type): cell-based
In data set [1] the test system is SH-SY5Y cells. Put plainly: Neuroprotection against rotenone/oligomycin A, pre-incubation model, MTT. The conditions noted are these: Homo sapiens, compound 1 μM pre-incubation 24 h, then Rot/Olig (30/10 μM); for viability at 1 µM: read-out: % Survival. As for the experimental part:
(§1) SH-SY5Y cells [ECACC 94030304], in 5 to 16 passage after defreezing were maintained in Eagle media modified by Dulbecco (DMEM) containing 15 non-essential amino acids and supplemented with 10% fetal bovine serum, 1 mM glutamine, 50 units/mL penicillin/streptomycin (obtained from GIBCO, Madrid, Spain). Cells were seeded in flasks containing supplemented media and were maintained in an incubator at 37° C. and 5% CO2. 1:4 passes were performed twice per week. For the experiments, cells were seeded in 24 well-plates at a density of 2×10^5 cells/well, or in 96 well-plates at a density of 8×10^4 cells/well. For cytotoxicity experiments, cells were treated with the compounds before confluence with DMEM media supplemented with fetal bovine serum 1%.
(§2) In order to assess cellular viability, we measured the metabolic reduction of 3-(4,5-Dimethylthiazol-2-yl)-2,5 diphenyltetrazolium bromide (MTT). MTT is an indirect assay to measure cellular viability. It is a colorimetric method based on the reduction of 3-(4,5-Dimethylthiazol-2-yl)-2,5 diphenyltetrazolium. This process is performed by the mitochondrial enzyme succinate-dehydrogenase present in metabolic active cells. Thus, the water-soluble yellow MTT (tetrazolium salt) is transformed into a insoluble purple compound (formazan). Quantity of living cells is directly proportional to the quantity of formazan (Mosmann, 1983, J Immunol Methods, 65: 55-63). […] Therefore, with this assay we can measure cellular surviving and proliferation and also, we can determine the cytotoxicity of potential neuroprotective compounds. In order to assess cellular viability in SH-SY5Y cell line, we added 30 μl/well of MTT (5 mg/mL) and after 2 h, medium was carefully removed to avoid losing the formazan and was diluted in 300 μL of DMSO. Afterwards, samples were transferred to a 96 well-plate and the absorbance was measured at 570 nm using a absorbance/fluorescence reader FluoStar optima®. Every MTT assay was performed in triplicates. Absorbance values obtained with the toxic alone were subtracted to the absorbance values obtained in basal conditions (without treatment). That result was considered as the 100% of cell death and the values obtained with the compounds in the presence of the toxic stimulus were normalized as percentages of that value. For determining the surviving percentage, those percentages of cell death were subtracted to 100.
(§3) Neuroprotection elicited by the compounds of the invention 1-16: The activation of Nrf2-ARE pathway by different compounds exerts neuroprotective effects against toxic models based on oxidative stress via the expression of cytoprotective genes. […] We evaluated the neuroprotective potential of the compounds using the human neuroblastoma cell line using the following cytotoxicity models: 1) oxidative stress induced by rotenone+oligomycin, both blockers of the electron transport chain as previously described (Halliwell, 1992, J Neurochem, 59: 1609-23, Newhouse y col., 2004, Toxicol Sci, 79: 137-46), and 2) cytotoxicity induced by the electrophilic compound Menadione. This compound produces oxidative stress after being metabolized by microsomal enzymes in the cell which produces hydroxyl radical and oxygen reactive species. As a consequence, there is a depolarization of mitochondrial membrane generating a release of apoptotic factors such as cytochrome c, and activating the caspase cascade (Loor y col., 2010, Free Radic Biol Med, 49: 1925-36, Chuang y col., 2002, Cancer Res, 62: 6246-54). Caspase 3 activation can produce the lysis of proteins and induce DNA fragmentation, leading to cell death (Gerasimenko y col., 2002, J Cell Sci, 115: 485-97).
For this study we propose a protocol in which the cells are pre-incubated with each of the derivatives at 1 μM for 24 h. After the pre-incubation period, the medium was removed and replaced by culture medium with the rotenone/oligomycin-A (30 μM and 10 μM, respectively) toxic mixture. […]

Data set [2] has as its system SH-SY5Y cells. In words: Toxicity in SH-SY5Y neuronal cell line, reduction of cell viability (MTT). Conditions: 24 h incubation, MTT, concentration reducing viability to 50% of basal. As for the experimental part: as §2, with “100. […]” for “100.”
In order to further study its safety profile, the effect of the derivatives on neuronal cells used for neuroprotection experiments, the SH-SY5Y human neuroblastoma cells, was also evaluated. Maintenance and culture methods of this cell line have been described above. For toxicity experiments, SH-SY5Y cells were plated in 96-well plates at the density of 6×10 ^4 cells/well. The experimental conditions were the same as those described for the toxicity study in HepG2 cells.
The results obtained are shown in Table 6 expressed as the lethal dose 50 (LD50), or needed concentration to reduce to 50% the viability of basal conditions (without treatment), measured by the MTT reduction method.

Data set [3] concerns SH-SY5Y cells. In words: Neuroprotection against rotenone/oligomycin A, pre- and co-incubation model, MTT. The conditions noted are these: Homo sapiens, compound 1 μM pre-incubation 24 h and co-incubation 24 h with Rot/Olig (30/10 μM); for inhibition at 1 µM: read-out: % Protection; for viability at 1 µM: read-out: % Survival. The method, then:
as §1, §2, §3
In this model, a 24 h pre-incubation period was performed in presence of the compounds synthesized at a concentration of 1 μM. Thereafter, a 24 h co-incubation period was added, in presence of the compounds with rotenone/oligomycin A (30 μM/10 μM) mixture. After 24 h, cell viability was assessed by the MTT reduction method. […]

Each structure is given as a SMILES string. Where only a bound is given, the exact number is not on record here.

Regarding `C/C=C/C(=O)Oc1ccc2[nH]cc(CCNC(C)=O)c2c1` [Compound 1, 3-(2-acetamidoethyl)-1H-indol-5-yl (E)-2-butenoate], in data set [1], the percent protection against toxin-induced cell death at 1 µM was 28.5% and the viability at 1 µM amounted to 70.4 ± 4.03%. The “SH-SY5Y LD50” value in data set [2] was over 100 µM. Besides, in data set [3], the inhibition at 1 µM was found to be 28.8% and the viability at 1 µM came out at 77 ± 1.3%.

Take `CC(=O)NCCc1c[nH]c2ccc(OC(=O)/C=C/c3ccccc3)cc12` [Compound 2, 3-(2-acetamidoethyl)-1H-indol-5-yl cinnamate]: in data set [1], the percent protection against toxin-induced cell death at 1 µM was 34.7% and the viability at 1 µM was found to be 72.7 ± 3.59%. Besides, the “SH-SY5Y LD50” value in data set [2] is over 100 µM. In addition, in data set [3], the inhibition at 1 µM came out at 48% and the viability at 1 µM was 73.7 ± 4.65%.

Regarding `CC(=O)NCCc1c[nH]c2ccc(OC(=O)/C=C/c3ccc(C)cc3)cc12` [Compound 3, 3-(2-acetamidoethyl)-1H-indol-5-yl (E)-3-(4-methylphenyl)acrylate], in data set [1], the percent protection against toxin-induced cell death at 1 µM is 20.5% and the viability at 1 µM was determined as 67 ± 3.21%. Further, the “SH-SY5Y LD50” value in data set [2] is 80 µM. Further, in data set [3], the inhibition at 1 µM stood at 55.1% and the viability at 1 µM was found to be 76.4 ± 3.89%.

For `COc1ccccc1/C=C/C(=O)Oc1ccc2[nH]cc(CCNC(C)=O)c2c1` [Compound 4, 3-(2-acetamidoethyl)-1H-indol-5-yl (E)-3-(2-methoxyphenyl)acrylate], in data set [1], the percent protection against toxin-induced cell death at 1 µM is 19% and the viability at 1 µM stood at 67.1 ± 2.61%. In addition, the “SH-SY5Y LD50” value in data set [2] was found to be 64 µM. Further, in data set [3], the inhibition at 1 µM came out at 28.1% and the viability at 1 µM is 69.9 ± 4.17%.

Turning to `COc1cccc(/C=C/C(=O)Oc2ccc3[nH]cc(CCNC(C)=O)c3c2)c1` [Compound 5, 3-(2-acetamidoethyl)-1H-indol-5-yl (E)-3-(3-methoxyphenyl)acrylate], in data set [1], the percent protection against toxin-induced cell death at 1 µM stood at 27.1% and the viability at 1 µM is 70.2 ± 2.42%. In addition, the “SH-SY5Y LD50” value in data set [2] is 83 µM. In data set [3], the inhibition at 1 µM was determined as 57.6% and the viability at 1 µM was 78.7 ± 4.37%.

For the compound `COc1ccc(/C=C/C(=O)Oc2ccc3[nH]cc(CCNC(C)=O)c3c2)cc1` [Compound 6, 3-(2-acetamidoethyl)-1H-indol-5-yl (E)-3-(4-methoxyphenyl)acrylate], in data set [1], the percent protection against toxin-induced cell death at 1 µM was 29.8% and the viability at 1 µM came to 70 ± 3.04%. Besides, the “SH-SY5Y LD50” value in data set [2] was 60 µM. In data set [3], the inhibition at 1 µM turned out to be 44.1% and the viability at 1 µM is 71.6 ± 3.94%.

On to `CC(=O)NCCc1c[nH]c2ccc(OC(=O)/C=C/c3ccc(O)cc3)cc12` [Compound 7, 3-(2-acetamidoethyl)-1H-indol-5-yl (E)-3-(4-hydroxyphenyl)acrylate], for which, in data set [1], the percent protection against toxin-induced cell death at 1 µM was 32.5% and the viability at 1 µM is 71.5 ± 4.92%. Besides, the “SH-SY5Y LD50” value in data set [2] is over 100 µM. Further, in data set [3], the inhibition at 1 µM came out at 39.8% and the viability at 1 µM is 79.7 ± 2.37%.

Consider `COc1cc(/C=C/C(=O)Oc2ccc3[nH]cc(CCNC(C)=O)c3c2)ccc1O` [Compound 8, 3-(2-acetamidoethyl)-1H-indol-5-yl (E)-3-(4-hydroxy-3-methoxyphenyl)acrylate], for which, in data set [1], the percent protection against toxin-induced cell death at 1 µM came to 37% and the viability at 1 µM was found to be 74 ± 3.13%. Also, the “SH-SY5Y LD50” value in data set [2] was over 100 µM. In addition, in data set [3], the inhibition at 1 µM turned out to be 41.7% and the viability at 1 µM stood at 81.1 ± 1.71%.

In the case of `CC(=O)NCCc1c[nH]c2ccc(OC(=O)/C=C/c3ccc(F)cc3)cc12` [Compound 9, 3-(2-acetamidoethyl)-1H-indol-5-yl (E)-3-(4-fluorophenyl)acrylate], in data set [1], the percent protection against toxin-induced cell death at 1 µM worked out at 21.5% and the viability at 1 µM was 67.4 ± 2.13%. For the same compound, in data set [2], the “SH-SY5Y LD50” value was over 100 µM. Besides, in data set [3], the inhibition at 1 µM worked out at 40.5% and the viability at 1 µM was 69.6 ± 2.63%.

For `CC(=O)NCCc1c[nH]c2ccc(OC(=O)/C=C/c3ccc(Br)cc3)cc12` [Compound 10, 3-(2-acetamidoethyl)-1H-indol-5-yl (E)-3-(4-bromophenyl)acrylate], in data set [1], the percent protection against toxin-induced cell death at 1 µM came out at 30.2% and the viability at 1 µM was 71.1 ± 2.61%. Besides, in data set [2], the “SH-SY5Y LD50” value turned out to be 60 µM. In data set [3], the inhibition at 1 µM was determined as 40.8% and the viability at 1 µM was 70.4 ± 2.21%.

Regarding `CC(=O)NCCc1c[nH]c2ccc(OC(=O)/C=C/c3ccc(Cl)cc3)cc12` [Compound 11, 3-(2-acetamidoethyl)-1H-indol-5-yl (E)-3-(4-chlorophenyl)acrylate], in data set [1], the percent protection against toxin-induced cell death at 1 µM is 33.5% and the viability at 1 µM amounted to 73.2 ± 3.12%. In data set [2], the “SH-SY5Y LD50” value is over 100 µM. In addition, in data set [3], the inhibition at 1 µM turned out to be 28.4% and the viability at 1 µM is 70.2 ± 3.7%.

Consider `CC(=O)NCCc1c[nH]c2ccc(OC(=O)/C=C/c3ccc(Cl)c(Cl)c3)cc12` [Compound 12, 3-(2-acetamidoethyl)-1H-indol-5-yl (E)-3-(3,4-dichlorophenyl)acrylate], for which, in data set [1], the percent protection against toxin-induced cell death at 1 µM is 25.3% and the viability at 1 µM came to 70.1 ± 4.35%. For the same compound, the “SH-SY5Y LD50” value in data set [2] was 51 µM. In addition, in data set [3], the inhibition at 1 µM stood at 27.8% and the viability at 1 µM stood at 69.9 ± 3.47%.

Regarding `CC(=O)NCCc1c[nH]c2ccc(OC(=O)/C=C/c3ccccc3C(F)(F)F)cc12` [Compound 13, 3-(2-acetamidoethyl)-1H-indol-5-yl (E)-3-(2-(trifluoromethyl)phenyl)acrylate], in data set [1], the percent protection against toxin-induced cell death at 1 µM stood at 22.1% and the viability at 1 µM is 67 ± 3.01%. Also, the “SH-SY5Y LD50” value in data set [2] was over 100 µM. Further, in data set [3], the inhibition at 1 µM is 50.2% and the viability at 1 µM is 73.8 ± 4.55%.
